Assay results as given in patent US20200289554A1, “BIOORTHOGONAL COMPOUNDS COMPRISING A PROPARGYL GROUP FOR TREATING CANCER” (THE UNIVERSITY COURT OF THE UNIVERSITY OF EDINBURGH, priority 2016, published 2020).
pEC50: −log10 of the molar value.

Columns and labels:
A549 cells = assay: Prodrug safety dose-response cell viability (PrestoBlue), A549; format: cell-based; settings: Homo sapiens, 120 h, 5 days, no catalyst
Experimental: (§1) These cell lines were selected as these are primary malignancies against which the parental drugs are currently prescribed.
(§2) The toxicities of each active agent and prodrugs were compared by performing dose-response studies. […] Cell viability was analysed by fluoresce intensity (λex=540 nm; λem=590 nm) after 60-90 min incubation with PrestoBlue™ Reagent (Life Technologies).

T98 cells = assay: BOOM conversion: prodrug + Pd0-resins in cell culture, cell viability, T98; format: cell-based, human; settings: Homo sapiens, 120 h, prodrug in combination with Pd0-resins 1 mg/mL, 5 days, read-out: EC50, prodrug + Pd-resins
Experimental: Following 5 days treatment, cells were incubated with PrestoBlue™ Cell Viability Reagent (Life Technologies) for 60-90 min. Fluorescence intensity values were related to the untreated cells (100% cell viability). […] Cells incubated in 0.1% (v/v) DMSO in media were used as untreated cell control.
Cell viabilities for each prodrug provided as a combination with palladium is presented in FIG. 7 in the right of each set of two bars. Data for prodrug in the absence of palladium catalyst is also provided (the left bar of each set of two bars) for comparison along with negative controls (from left to right: DMSO, Pd^0 and Doxorubicin). Cells were incubated in tissue culture media containing 0.1% (v/v) DMSO and: Pd^0-resins (1 mg/mL, negative control); 1 μM of each prodrug (negative control); and Pd^0-resins (1 mg/mL)+1 μM of each prodrug (BOOM reaction assay). Cells incubated in 0.1% (v/v) DMSO in media were used as untreated cell control.
Following 5 days treatment, cells were incubated with PrestoBlue™ Cell Viability Reagent (Life Technologies) for 90 min. Fluorescence intensity values were related to the untreated cells (100% cell viability). Data are provided in FIG. 8 for cells incubated in tissue culture media containing 0.1% (v/v) DMSO and: Pd^0-resins (1 mg/mL, negative control); 0.3-3 μM of Doxorubicin prodrug for A549 and DU145 cell lines, 0.1-1 μM of Doxorubicin prodrug for T98 cell line (negative control); 0.3-3 μM of Doxorubicin for A549 and DU145 cell lines, 0.1-1 μM of Doxorubicin for T98 cell line (positive control); and Pd^0-resin (1 mg/mL)+Doxorubicin prodrug (BOOM reaction assay). Cells incubated in 0.1% (v/v) DMSO in media were used as untreated cell control.
The toxigenic effect as a result of in situ generation of parental drug in cell culture was determined by incubating all cells in tissue culture media containing 0.1% (v/v) DMSO and a) Pd^0, Au, or Pd/Au-resin (1 mg/mL for all cells tested, negative control); b) prodrug (negative control); or c) Pd^0, Au, or Pd/Au-resin (1 mg/mL for all cells)+prodrug (reaction assay). Cells incubated in 0.1% (v/v) DMSO in media was used as an untreated cell reference standard (100% viability). A PrestoBlue® cell viability assay as described above was carried out and fluorescent intensities compared to the untreated cell control.
A dose response study was performed for each cell line keeping the quantity of Pd^0 resin constant (0.8 mg/mL for U87G and 1 mg/mL for the rest of cell lines). All cells were plated in Dulbecco's Modified Eagle Media (DMEM) supplemented with serum (10% FBS) and L-glutamine (2 mM). […]

U87G cells = assay: Prodrug safety dose-response cell viability (PrestoBlue), U87G; format: cell-based, human; settings: Homo sapiens, 120 h; U87G cells, 5 days, no catalyst; read-out: EC50 (cell viability)
Experimental: as §1, §2

## C#CCOc1ccc(CONC(=O)CCCCCCC(=O)Nc2ccccc2)cc1 [POB-Vor, Propargyloxybenzyl-Vorinostat]
A549 cells
  pEC50: < 3.30
T98 cells
  pEC50: 4.78
U87G cells
  pEC50: < 3.30
